# Source: patent publication US20040034336A1, “Charged liposomes/micelles with encapsulted medical compounds” (priority 2002, published 2004)
# Assay: Local delivery of drug in charged liposomes/micelles from a hydrogel-coated metal mesh catheter by iontophoresis
# Details: iontophoresis 5 mA, 8 V, 10 minutes
# Experimental: Liposome or micelles were prepared by mixing 3.0 mg of phosphatidylcholine, 3.0 mg of cholesterol and 0.3 mg of phosphatidylserine in a test tube. Chloroform (200 microliters) was added and the solution was evaporated to dryness in a test tube. 7-Amino Actinomycin D (500 mg) was dissolved in 8 mM CaCl2 for a final concentration of 0.5 mg/ml. The 7-Amino Actinomycin D solution was added to the lipid mixture in small aliquots with constant stirring. The hydrogel-coated metal mesh catheter was placed in the 7-amino Actinomycin D/liposome or micelle mixture and then used for drug delivery in the following manner: The hydrogel-coated metal mesh catheter was placed in the 7-Amino Actinomycin D/liposome or micelle mixture and then removed. In some cases, the hydrogel-coated mesh portion of the catheter was covered with a retractable sheath to prevent loss of the compound during the transport of the catheter from the arterial access site to the target site. When the catheter was positioned at the target site the sheath was retracted and the mesh was expanded against the arterial wall. Iontophoersis was performed by applying an electrical current to the mesh. […] In this example the iontophoresis parameters were 5 mA, and 8 V, applied for 10 minutes.
compound,measurement,setting,value
Cc1c2oc3c(C)c(N)cc(C(=O)N[C@@H]4C(=O)N[C@H](C(C)C)C(=O)N5CCC[C@H]5C(=O)N(C)CC(=O)N(C)[C@@H](C(C)C)C(=O)O[C@@H]4C)c3nc-2c(C(=O)N[C@@H]2C(=O)N[C@H](C(C)C)C(=O)N3CCC[C@H]3C(=O)N(C)CC(=O)N(C)[C@@H](C(C)C)C(=O)O[C@@H]2C)c(N)c1=O [7-Amino Actinomycin D],distribution of the fluorescent compound in the vessel after local delivery,"7-Amino Actinomycin D/liposome or micelle mixture (phosphatidylcholine, cholesterol, phosphatidylserine)",throughout the vessel wall and in the outer layer of the vessel
same,localization in the cells of the vessel after local delivery,7-Amino Actinomycin D/liposome or micelle mixture,evidence of localization of the 7-Amino Actinomycin D in the nuclei of the cells
